From patent publication EP2057185B1, “POLYMYXIN DERIVATIVES AND USES THEREOF” (Northern Antibiotics Oy, priority 2006, dated 2008)
Bridge positions count the residues as written; N and C are the ends. Square brackets hold non-standard residues; d marks the D form. Peptide text beside a SMILES is read from it. * marks the point of attachment. Octanoyl = CCCCCCCC(=O)*; Dab = NCC[C@H](N)C(=O)O; Abu = CC[C@H](N)C(=O)O

Key:
E. coli IH3080 [1] = experiment: Growth inhibition around wells on LB agar plates; format: cell-based, Escherichia coli; details: 18 h at 37°C; for Antibacterial activity at 4 µg: growth inhibition area around a well containing 4 µg of compound; for Antibacterial activity at 10 µg: growth inhibition area around a well containing 10 µg of compound
Description: Peptides synthesized in Example 1, all carrying at least two (2) but not more than three (3) positive charges, were studied for their ability to inhibit the growth of E. coli. This was tested employing LB agar (LB Agar Lennox, Difco, BD, Sparks, MD, U.S.A) plates. The indicator organism E. coli IH3080 (K1:O18) was an encapsulated strain originally isolated from a neonate suffering from meningitis (Vaara et al. 1984) and obtained from National Public Health Institute, Helsinki, Finland.
(§1) From an overnight-grown culture of IH3080 on LB agar, a suspension of approx. 10^8 cells/ml was prepared in 0.9% NaCl. Aliquots of this suspension were then pipetted on the agar plates and the plates were gently shaken to spread the suspension evenly on the entire surface of the plate. Thereafter, the unabsorbed part of the suspension was removed by using a Pasteur pipette. After the surface had dried, small wells (diameter, 2 mm) were drilled on the plates (five wells per plate) by using a sterile sharp-edged narrow metal tube, single-use pipette tip, and vacuum suction. […] Controls included 0.9% NaCl solution without the compound to be tested. The plates were then incubated for 18 h at 37°C whereafter the diameters of growth inhibition zones around each well were measured; the diameter of the well itself was […]. Finally, the diameters were converted to surface areas of growth inhibition (in square mm).

A. baumannii ATCC 19606 = experiment: Growth inhibition around wells on LB agar plates; format: cell-based, Acinetobacter baumannii; details: for Antibacterial activity 4 µg: growth inhibition area around a well containing 4 µg; for Antibacterial activity 10 µg: growth inhibition area around a well containing 10 µg
Description: (§2) From an overnight-grown culture of IH3080 on LB agar, a suspension of approx. 10^8 cells/ml was prepared in 0.9% NaCl. Aliquots of this suspension were then pipetted on the agar plates and the plates were gently shaken to spread the suspension evenly on the entire surface of the plate. Thereafter, the unabsorbed part of the suspension was removed by using a Pasteur pipette. After the surface had dried, small wells (diameter, 2 mm) were drilled on the plates (five wells per plate) by using a sterile sharp-edged narrow metal tube, single-use pipette tip, and vacuum suction. Samples (4 µl and 10 µl) of the peptide solution in 0.9% NaCl (at concentrations of 1 µg/ml and 0.1 µg/ml) were then pipetted to the wells and the sample fluids were allowed to absorb. Controls included 0.9% NaCl solution without the compound to be tested. The plates were then incubated for 18 h at 37°C whereafter the diameters of growth inhibition zones around each well were measured; the diameter of the well itself was […]. Finally, the diameters were converted to surface areas of growth inhibition (in square mm).
(§3) Direct antibacterial activity of twelve NAB compounds against Acinetobacter baumannii ATCC 19606 and Pseudomonas aeruginosa ATCC 27853 was tested by using the susceptibility determination method described in Example 2. Five compounds (NAB7062, NAB734, NAB737, NAB739, and NAB740) had notable activity against A. baumannii. […] The antibacterial activity of NAB739 and NAB740 were as strong as or even stronger than that of polymyxin B.

[2] = tested on: Ps. aeruginosa ATCC 27853; experiment: Growth inhibition around wells on LB agar plates; format: cell-based, Pseudomonas aeruginosa; details: for Antibacterial activity 4 µg: growth inhibition area around a well containing 4 µg; for Antibacterial activity 10 µg: growth inhibition area around a well containing 10 µg
Description: as §2, §3

E. coli IH3080 [3] = experiment: Growth inhibition around wells on LB plates containing rifampin (sensitization); format: cell-based, Escherichia coli; details: well containing 4 µg of compound; for Antibacterial activity in the presence of rifampin concn (µg/ml) of 0: plates with no rifampin; for Antibacterial activity in the presence of rifampin concn (µg/ml) of 0.1: rifampin 0.1 µg/ml; for Antibacterial activity in the presence of rifampin concn (µg/ml) of 1.0: rifampin 1.0 µg/ml
Description: as §1, with “mm). […] Louis, MO, U.S.A).” for “mm).”

E. cloacae ATCC23355 = tested on: E. cloacae ATCC23355
Description: (§4) MICs were determined by using E-strips (Biodisk Ltd., Solna, Sweden) according to the manufacturer's instructions.
(§5) The strains originated from ATCC (11 strains), CCUG (11 strains), and NCTC (The National Collection of Type Cultures, Colindale, U.K.; 2 strains). Eight strains (the F-strains) were purchased from Mobidiag Ltd., Helsinki, Finland.

E. coli IH3080 [4] = tested on: E. coli IH3080
Description: as §4, §5

K. pneumoniae ATCC13883 = tested on: K. pneumoniae ATCC13883
Description: as §4, §5

[5] = Two-week intravenous toxicity study in young rats; format: in vivo; details: for rise of blood urea nitrogen (BUN) over control or low dose group: 16 mg/kg/day
Description: Toxicity in young rats (weighing approx. 150 g in the beginning of the study) was determined by administering doses (1, 2, 4, 8, 16, and 32 mg/kg per day) of NAB7061 as well as the control compound polymyxin B intravenously twice (2) a day for two weeks. A group of ten (10) rats was studied for each dosis regimen. Clinical observations were made daily, the body weight measured twice weekly, and the food consumption twice weekly. In the end of week 2, all animals were sacrificed.
Histopathology of kidneys was performed for each animals and histopathology of all tissues was performed in three high-dose groups receiving NAB7061.

C. freundii ATCC8090 = experiment: Growth inhibition around wells on LB agar plates; format: cell-based, Citrobacter freundii; details: growth inhibition area around well
Description: as §2
The susceptibility of eleven Gram-negative bacterial strains (nine different species) to NAB734 and polymyxin B was compared by using the susceptibility determination method described in Example 2. […]

[6] = E. cloacae ATCC23355, 4 µg/ml of NAB 7061
[7] = E. coli IH3080, 4 µg/ml of NAB 7061
[8] = K. pneumoniae ATCC1 3883, 4 µg/ml of NAB 7061

Compound: CCCCCCCC(=O)N[C@H](C(=O)N[C@@H](CC)C(=O)N[C@H]1CCNC(=O)[C@H]([C@@H](C)O)NC(=O)[C@H](CCN)NC(=O)[C@H](CCN)NC(=O)[C@H](CC(C)C)NC(=O)[C@@H](Cc2ccccc2)NC(=O)[C@H](CCN)NC1=O)[C@@H](C)O [NAB 7061, OA-Thr-Abu-cy[Dab-Dab-DPhe-Leu-Dab-Dab-Thr-]] (Octanoyl-T[Abu][Dab][Dab][dF]L[Dab][Dab]T; lactam 3-C)
- Antibacterial activity at 4 µg (E. coli IH3080 [1]): 0 square millimeters
- Antibacterial activity at 10 µg (E. coli IH3080 [1]): 50 square millimeters
- Antibacterial activity 4 µg (A. baumannii ATCC 19606): 0 square millimeters
- Antibacterial activity 10 µg (A. baumannii ATCC 19606): 0 square millimeters
- Antibacterial activity 4 µg [2]: 0 square millimeters
- Antibacterial activity 10 µg [2]: 0 square millimeters
- Antibacterial activity in the presence of rifampin concn (µg/ml) of 0 (E. coli IH3080 [3]): 0 square millimeters
- Antibacterial activity in the presence of rifampin concn (µg/ml) of 1.0 (E. coli IH3080 [3]): 155 square millimeters
- MIC (µg/ml) of clarithromycin in the presence of 4 µg/ml of NAB 7061 (E. cloacae ATCC23355; E. cloacae ATCC23355): 0,25 - 0,75 µg/ml
- MIC (µg/ml) of rifampin in the presence of 4 µg/ml of NAB 7061 (E. cloacae ATCC23355; E. cloacae ATCC23355): 0,008 - 0,016 µg/ml
- rise of blood urea nitrogen (BUN) over control or low dose group ([5]; rat, in vivo): no such a rise was found
- general pathology and histopathology of organs and kidneys ([5]; rat, in vivo, iv): No NAB7061-related pathological findings
- lowest dose that negatively influenced the body weight gain ([5]; rat, in vivo, iv): 8 mg/kg
- rise of blood urea nitrogen (BUN) ([5]; rats, 32 mg/kg per day, end of the study): 7%
- survival ([5]; rats, 1 to 32 mg/kg per day intravenously, two weeks): all rats receiving NAB7061 remained alive throughout the study

Compound: Polymyxin B
- Antibacterial activity at 4 µg (E. coli IH3080 [1]): 79 square millimeters
- Antibacterial activity at 4 µg (E. coli IH3080 [1]; listed as Polymyxin B sulfate): 95 square millimeters
- Antibacterial activity at 10 µg (E. coli IH3080 [1]): 133 square millimeters
- Antibacterial activity 4 µg (A. baumannii ATCC 19606): 113 square millimeters
- Antibacterial activity 10 µg (A. baumannii ATCC 19606): 154 square millimeters
- Antibacterial activity 4 µg [2]: 95 square millimeters
- Antibacterial activity 10 µg [2]: 133 square millimeters
- Antibacterial activity 4 µg (C. freundii ATCC8090; 4 µg): 95 square millimeters
- Antibacterial activity 10 µg (C. freundii ATCC8090; 10 µg): 154 square millimeters
- Antibacterial activity in the presence of rifampin concn (µg/ml) of 0 (E. coli IH3080 [3]): 79 square millimeters
- Antibacterial activity in the presence of rifampin concn (µg/ml) of 0.1 (E. coli IH3080 [3]): 95 square millimeters
- Antibacterial activity in the presence of rifampin concn (µg/ml) of 1.0 (E. coli IH3080 [3]): 104 square millimeters
- Sensitization factor (E. cloacae ATCC23355; ratio of the MIC of the antibiotic in the absence of NAB 7061 to that in the presence of 4 µg/ml of NAB 7061, E. cloacae ATCC 23355): 4
- Sensitization factor (E. coli IH3080 [4]; ratio of the MIC of the antibiotic in the absence of NAB 7061 to that in the presence of 4 µg/ml of NAB 7061, E. coli IH 3080): 2
- Sensitization factor (K. pneumoniae ATCC13883; ratio of the MIC of the antibiotic in the absence of NAB 7061 to that in the presence of 4 µg/ml of NAB 7061, K. pneum. ATCC 13883): 1
- rise of blood urea nitrogen (BUN) over control or low dose group ([5]; rat, in vivo): 15%
- mortality ([5]; rats, 32 mg/kg per day intravenously, two weeks): 100%
